Inconclusive results are not listed. The source made the active and inactive calls.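 Rule for the calls: active = Compounds that reduce signal, with fitted half-maximal dose at or under twice the top valid tested dose; inconclusive = Poor fit, or flat curve losing 30 to 70% of signal; inactive = Potency past limit, flat within 30%, or opposite direction.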

Data on 59 compounds can be found in PubChem BioAssay AID687005 (Broad Institute, 2013).

The first test is described as follows: HEK293T cell cytotoxicity, dose response, cytotoxicity control, ATP luminescence, cherry-pick samples (AID 687005). The settings on record: HEK293T viability, ATP luminescence (CellTiter-Glo), 48 h; at 23.5 µM (top of the series).
In the case of `COc1cccc(S(=O)(=O)Nc2ccc3c(c2)[C@H]2C[C@H](CC(=O)NCc4cccc(F)c4)O[C@@H](CO)[C@H]2O3)c1`, the activity change, negative = cytotoxicity was -22.3% (inactive).
Same read-out and setting: the result for `Cc1noc(C)c1NC(=O)Nc1ccc2c(c1)C(=O)N(C)[C@H]1CC[C@H](CC(=O)N[C@H]3CCN(Cc4ccccc4)C3)O[C@H]1CO2` reads -3.29% (inactive); that for `C[C@@H]1CCCCO[C@@H](CN(C)C(=O)Nc2ccc3c(c2)OCO3)[C@@H](C)CN([C@H](C)CO)C(=O)c2cc(NC(=O)Nc3cccc4ccccc34)ccc2O1`, -9.79% (inactive); that for `O=C(NC1CCCCC1)N[C@H]1C=C[C@@H](CC(=O)N2CCOCC2)O[C@H]1CO`, 14.2% (inactive).
Same read-out and setting: the result for `C[C@@H]1CCCCO[C@@H](CN(C)Cc2ccc(C(F)(F)F)cc2)[C@@H](C)CN([C@@H](C)CO)C(=O)c2cc(NS(=O)(=O)c3cn(C)cn3)ccc2O1` reads -31.2% (inactive).
Still for that read-out and setting: for `C[C@H](CO)N1C[C@H](C)[C@@H](CN(C)C(=O)Nc2ccc(F)cc2)Oc2c(NS(=O)(=O)c3ccccc3)cccc2C1=O` the value was -4.44% (inactive).

Staying with this test, now noted: HEK293T viability, ATP luminescence (CellTiter-Glo), 48 h; at 26 µM (top of the series).
Consider `COc1cc2c(C(=O)N(C)c3cc(Cl)ccc3OC)cn(C)c(=O)c2cc1OC`, for which the activity change, negative = cytotoxicity is -3.77% (inactive).
Still for that read-out and setting: the result for `O=C(Nc1ccc(F)cc1)N1C[C@H]2[C@@H](c3ccccc31)[C@@H](CO)N2Cc1cocn1` reads -16.4% (inactive); that for `C[C@H]1CN([C@@H](C)CO)C(=O)Cc2cc(N(C)C)ccc2O[C@@H]1CN(C)C(=O)Nc1ccc(C(F)(F)F)cc1`, -28.9% (inactive).
On the same count and under the same terms, the result for `COCC(=O)Nc1ccc2c(c1)C(=O)N(C)C[C@H](OC)[C@@H](C)CN(C(=O)c1ccccc1)[C@@H](C)CO2` reads 13.6% (inactive); that for `CC(C)NC(=O)Nc1cccc2c1O[C@@H](CN(C)C(=O)Nc1ccccc1)[C@@H](C)CN([C@@H](C)CO)C2=O`, -13.9% (inactive); that for `CC(C)NC(=O)NCC[C@H]1CC[C@H](NC(=O)CN(C)C)[C@H](CO)O1`, 7.79% (inactive).
Same read-out and setting: for `O=C(CSc1ncnc2c1cnn2-c1ccc(Cl)cc1)NCc1ccc2c(c1)OCO2` the value was -9.56% (inactive); for `C[C@H](CO)N1C[C@H](C)[C@@H](CN(C)Cc2ccc(Oc3ccccc3)cc2)Oc2ccc(NS(=O)(=O)c3cn(C)cn3)cc2CC1=O`, -30.9% (inactive).
`Cc1c(C(=O)NC(=S)Nc2ccccc2N2CCCC2)cccc1[N+](=O)[O-]`: the activity change, negative = cytotoxicity was -4.96% (inactive).
On the same count and under the same terms, the result for `COc1ccc(C(=O)NC(=S)Nc2ccccc2N2CCOCC2)cc1[N+](=O)[O-]` reads -32.3% (inactive); that for `CCC(C)(NC=O)C(=O)Nc1c(C)cccc1C` (centres undefined), -37.8% (inactive); that for `CCNC(=O)COc1cccc(C(=O)NCc2ccccc2)c1`, -54% (inactive).
The same measure, in the same setting: the result for `C/C=C/c1ccc([C@@H]2[C@@H](C#N)N(S(=O)(=O)c3cccc(F)c3)[C@@H]2CO)cc1` reads 4.72% (inactive); that for `C[C@@H]1CCCCO[C@H](CN(C)C(=O)CCCN(C)C)[C@@H](C)CN([C@H](C)CO)C(=O)c2cc(NC(=O)Cc3ccccc3)ccc2O1`, 5.89% (inactive); that for `Cc1cccc(-c2ccc([C@H]3[C@H](CO)N4CCCCN(C(=O)c5ccc6c(c5)OCO6)C[C@@H]34)cc2)c1`, 70.3% (inactive).
Still for that read-out and setting: the result for `COc1cccc(-c2ccc3c(c2)[C@H]2[C@H](CCN2C(=O)Cc2ccncc2)[C@H](CO)N3C)c1` reads 125% (inactive); that for `C[C@H](CO)N1C[C@H](C)[C@@H](CN(C)CC2CCOCC2)Oc2ncc(C#Cc3ccc(F)cc3)cc2C1=O`, -11.1% (inactive); that for `CN1C(=O)c2cc(NC(=O)Nc3ccc(Cl)cc3)ccc2OC[C@H]2O[C@@H](CC(=O)NCCN3CCCCC3)CC[C@@H]21`, 36.5% (inactive).
Regarding `CCNC(=O)Nc1ccc2c(c1)C(=O)N(C)[C@H]1CC[C@H](CC(=O)Nc3ccccc3F)O[C@@H]1CO2`, the activity change, negative = cytotoxicity was 46.5% (inactive).
Still for that read-out and setting: for `CCC(=O)N1[C@@H]2c3cccc(=O)n3C[C@H]1[C@H](CO)[C@H]2C(=O)NCc1ccccc1` the value was -16.7% (inactive); for `CNC[C@H]1OCCCC[C@H](C)Oc2ccc(NC(=O)CCCN(C)C)cc2C(=O)N([C@H](C)CO)C[C@@H]1C`, 15.7% (inactive); for `COc1ccc(CNC(=S)NCc2ccc(OC(C)C)cc2)cc1`, 19.2% (inactive).
The same measure, in the same setting: the result for `C[C@@H]1CN([C@@H](C)CO)C(=O)c2cccc(NC(=O)c3ccncc3)c2O[C@H]1CN(C)C(=O)Nc1ccccc1` reads 6.14% (inactive); that for `C/C=C/c1cnc2c(c1)C(=O)N([C@@H](C)CO)C[C@@H](C)[C@@H](CN(C)C(=O)C1CCCCC1)O2`, 10.3% (inactive); that for `COc1cccc(-c2cn(CC[C@@H]3CC[C@H](NC(C)=O)[C@@H](CO)O3)nn2)c1`, 8.26% (inactive).
Still for that read-out and setting: for `C[C@@H]1CN([C@H](C)CO)C(=O)c2cc(-c3ccc(F)cc3)cnc2O[C@H]1CN(C)CC1CCCCC1` the value was 6.84% (inactive); for `O=C(C1CCOCC1)N1CC[C@@H]2[C@H]1c1cc(Br)ccc1N[C@@H]2CO`, 8.11% (inactive); for `CO[C@H]1CC[C@@H]2CCOc3c(C#N)cccc3C(=O)N(C)C[C@H](OC)[C@@H](C)C(=O)N(C)C[C@@H]1O2`, -0.939% (inactive).
Regarding `CN(C[C@H]1N[C@@H](CO)[C@H]1c1ccc(-c2cccc(F)c2)cc1)S(C)(=O)=O`, the activity change, negative = cytotoxicity was 61.6% (inactive).
Consider `Cc1noc(C)c1S(=O)(=O)N(C)C[C@@H]1Oc2c(NC(=O)c3cnccn3)cccc2C(=O)N([C@@H](C)CO)C[C@@H]1C`, for which the activity change, negative = cytotoxicity is 6.5% (inactive).
Still for that read-out and setting: for `C[C@H](CO)N1C[C@H](C)[C@H](CN(C)C(=O)Nc2ccc3c(c2)OCO3)Oc2ncc(-c3ccc(F)cc3)cc2C1=O` the value was -18.8% (inactive); for `Cc1cc(C(=O)Nc2ccc3c(c2)C(=O)N(C)[C@@H]2CC[C@@H](CC(=O)N[C@@H](C)c4ccccc4)O[C@@H]2CO3)no1`, -33.4% (inactive); for `O=C(C[C@H]1C=C[C@H](NC(=O)Nc2cc(F)ccc2F)[C@@H](CO)O1)NCCCN1CCOCC1`, 27.4% (inactive).
The same measure, in the same setting: the result for `O=C(O)C[C@@H]1CC[C@@H]2[C@H](COC[C@H](O)CN2S(=O)(=O)c2ccc(F)cc2)O1` reads -25.9% (inactive); that for `CO[C@@H]1CN(C)C(=O)c2cc(NC(=O)C3CC3)ccc2OC[C@H](C)N(C(=O)c2ccncc2)C[C@H]1C`, -22.9% (inactive); that for `COc1ccccc1CNC(=O)COc1ccc2c(c1)CCC2`, 28.6% (inactive).
Same read-out and setting: for `Cc1noc(C)c1S(=O)(=O)Nc1ccc2c(c1)C(=O)N([C@H](C)CO)C[C@H](C)[C@H](CN(C)Cc1ccncc1)O2` the value was 37.8% (inactive); for `Cc1noc(C)c1S(=O)(=O)Nc1ccc2c(c1)CC(=O)N([C@H](C)CO)C[C@H](C)[C@@H](CN(C)S(=O)(=O)c1cn(C)cn1)O2`, -28.7% (inactive).
Consider `COc1cccc(S(=O)(=O)N2C[C@@H](O)COC[C@H]3O[C@H](CC(=O)Nc4ccccc4)CC[C@@H]32)c1`, for which the activity change, negative = cytotoxicity was -41.6% (inactive).
Take `COc1ccc(CN(C)C[C@@H]2Oc3c(NC(=O)Nc4cccc5ccccc45)cccc3C(=O)N([C@@H](C)CO)C[C@@H]2C)cc1`: the activity change, negative = cytotoxicity is -9.75% (inactive).
On the same count and under the same terms, for `Cc1ccc(S(=O)(=O)Nc2ccc3c(c2)C(=O)N([C@H](C)CO)C[C@H](C)[C@@H](CN(C)Cc2ccccc2)O3)cc1` the value was 43.1% (inactive); for `O=C(NCC[C@H]1CC[C@@H](NS(=O)(=O)c2ccc(F)cc2)[C@H](CO)O1)c1ccc2c(c1)OCO2`, 1.86% (inactive); for `CCCNC(=O)N1[C@@H](CO)[C@@H](c2ccc(-c3ccccc3)cc2)[C@@H]1CNC(C)=O`, -1.66% (inactive).
Same read-out and setting: for `C[C@@H]1CN([C@@H](C)CO)C(=O)c2cccc(NS(C)(=O)=O)c2O[C@@H]1CN(C)C(=O)Nc1ccc2c(c1)OCO2` the value was -20.4% (inactive); for `CC(C)CC#Cc1cnc2c(c1)C(=O)N([C@H](C)CO)C[C@H](C)[C@H](CN(C)C(=O)c1cccnc1)O2`, -8.15% (inactive).
On the same count and under the same terms, the result for `COC(=O)C1=C(C)N(Cc2ccccc2)C(=S)N[C@H]1c1cccc(C(F)(F)F)c1` reads -25.6% (inactive); that for `O=C(C[C@H]1CC[C@H]2[C@@H](COC[C@@H](O)CN2S(=O)(=O)c2ccc(Oc3ccccc3)cc2)O1)NC1CCC1`, 16.3% (inactive); that for `CC(=O)c1ccc(OCC(=O)NCc2ccc(F)cc2)cc1`, 11% (inactive).
As for `C[C@@H]1CN([C@@H](C)CO)C(=O)c2cc(NC(=O)C3CC3)ccc2O[C@H]1CN(C)CC1CCCCC1`, the activity change, negative = cytotoxicity is -17.8% (inactive).
The same measure, in the same setting: for `C/C=C/c1ccc2c(c1)O[C@H](CN(C)S(=O)(=O)c1ccccc1)[C@H](C)CN([C@@H](C)CO)S2(=O)=O` the value was -8.59% (inactive); for `C[C@H](CO)N1C[C@H](C)[C@@H](CN(C)C(=O)C2CCOCC2)Oc2ncc(C#CCc3ccccc3)cc2C1=O`, 6.08% (inactive).

The same test, now with this note: HEK293T viability, ATP luminescence (CellTiter-Glo), 48 h; at 30 µM (top of the series).
As for `CNC(=O)CN(c1ccc(C)cc1)S(=O)(=O)c1ccccc1`, the activity change, negative = cytotoxicity was -17.7% (inactive).

Still in this test, the particulars now being: HEK293T viability, ATP luminescence (CellTiter-Glo), 48 h; at 42 µM (top of the series).
For `Cc1ccc(NC(=O)C2(C)CCN2C(=O)CC2CC2)cc1C` (centres undefined), the activity change, negative = cytotoxicity was 22.8% (inactive).
